The values below come from ChEMBL document CHEMBL4673405, “Novel Linker Variants of Antileishmanial/Antitubercular 7-Substituted 2-Nitroimidazooxazines Offer Enhanced Solubility” (ACS Med Chem Lett, 2021).

The IC50 is the concentration that gives 50% inhibition. As a reminder, the share remaining is what is left of the initial amount, in per cent. Broadly, the solubility is how much of the substance goes into solution per volume.

Structures are written as SMILES. Values after ≈ are worked out from the molar mass of the structure shown.

One data set concerns MRC5. The data set can be described thus: Cytotoxicity against human MRC5 cells assessed as reduction in cell viability measured after 72 hrs by resazurin assay. Type of data set: ADME, cell-based. The note with it: MRC5, 72 h. In general terms: The colour change of resazurin is a common sign of viable cells or microbes.
In the case of `CC1(COc2ccc(F)cc2)CCn2cc([N+](=O)[O-])nc2O1` (stereo unspecified), the IC50 was at least 40 µM.
Same read-out and setting: as for `C[C@@]1(COC(=O)Nc2ccc(OC(F)(F)F)cc2)CCn2cc([N+](=O)[O-])nc2O1`, the figure is at least 40 µM; as for `CN(CC1(C)CCn2cc([N+](=O)[O-])nc2O1)c1ccc(Cl)cc1` (stereo unspecified), at least 40 µM.
Same read-out and setting: the same measure for `CC1(CNCc2ccc(OC(F)(F)F)cc2)CCn2cc([N+](=O)[O-])nc2O1` (stereo unspecified): at least 40 µM; for `CN(CC1(C)CCn2cc([N+](=O)[O-])nc2O1)c1ccc(F)cc1` (stereo unspecified): at least 40 µM.
Same read-out and setting: the same measure for `CC1(CNC(=O)c2cccc(OC(F)(F)F)c2)CCn2cc([N+](=O)[O-])nc2O1` (stereo unspecified): at least 40 µM; for `CC1(CNC(=O)Nc2ccc(OC(F)(F)F)cc2)CCn2cc([N+](=O)[O-])nc2O1` (stereo unspecified): at least 40 µM; for `CC1(CNC(=O)NCc2ccc(OC(F)(F)F)cc2)CCn2cc([N+](=O)[O-])nc2O1` (stereo unspecified): at least 40 µM.
Take `CN(CC1CCn2cc([N+](=O)[O-])nc2O1)c1ccc(OC(F)(F)F)cc1` (stereo unspecified): the IC50 was at least 40 µM.
As to `CC1(COC(=O)N(Cc2ccc(OC(F)(F)F)cc2)C(=O)NCc2ccc(OC(F)(F)F)cc2)CCn2cc([N+](=O)[O-])nc2O1` (stereo unspecified), the IC50 was at least 40 µM.
As for `O=C(NCC1CCn2cc([N+](=O)[O-])nc2O1)Nc1ccc(OC(F)(F)F)cc1` (stereo unspecified), the IC50 was at least 40 µM.
On the same count and under the same terms, as for `CC1(CNc2ccc(F)cc2)CCn2cc([N+](=O)[O-])nc2O1` (stereo unspecified), the figure is at least 40 µM; as for `O=C(NCC1CCn2cc([N+](=O)[O-])nc2O1)c1ccc(OC(F)(F)F)cc1` (stereo unspecified), at least 40 µM; as for `O=C(NCc1ccc(OC(F)(F)F)cc1)N(Cc1ccc(OC(F)(F)F)cc1)C(=O)OCC1CCn2cc([N+](=O)[O-])nc2O1` (stereo unspecified), at least 40 µM.
With `CC1(CNC(=O)c2ccccc2OC(F)(F)F)CCn2cc([N+](=O)[O-])nc2O1` (stereo unspecified), the half-inhibitory concentration (IC50) was at least 40 µM.
Still for that read-out and setting: as for `CN(CC1(C)CCn2cc([N+](=O)[O-])nc2O1)c1ccc(C(F)(F)F)nc1` (stereo unspecified), the figure is at least 40 µM.

A further data set relates to Leishmania donovani. The experiment in a line: Antileishmanial activity against Leishmania donovani MHOM/ET/67/HU3 amastigotes infected in BALB/c mouse model of visceral leishmaniasis assessed as reduction in parasite burden in liver at 12.5 mg/kg, po administered once daily for 5 consecutive days starting after 7 days post-infection by microscopic analysis relative to control. As to conditions: time 5 day. On the set-up: scale not given: the % may be the effect or the level left. Type of data set: functional.
On to `CC1(COc2ccc(OC(F)(F)F)cc2)CCn2cc([N+](=O)[O-])nc2O1` (stereo unspecified), for which the Activity was 100%.
Same read-out and setting: the same measure for `C[C@@]1(COC(=O)Nc2ccc(OC(F)(F)F)cc2)CCn2cc([N+](=O)[O-])nc2O1`: 31%.

The subject of the next data set is Leishmania donovani. The data set can be described thus: Antileishmanial activity against Leishmania donovani MHOM/ET/67/HU3 amastigotes infected in BALB/c mouse model of visceral leishmaniasis assessed as reduction in parasite burden in liver at 25 mg/kg, po administered once daily for 5 consecutive days starting after 7 days post-infection by microscopic analysis relative to control. Type of data set: functional. On the set-up: scale not given: the % may be the effect or the level left. The note with it: time 5 day.
With `CC1(COc2ccc(OC(F)(F)F)cc2)CCn2cc([N+](=O)[O-])nc2O1` (stereo unspecified), the Activity is 100%.
Same read-out and setting: the same measure for `C[C@@]1(COC(=O)Nc2ccc(OC(F)(F)F)cc2)CCn2cc([N+](=O)[O-])nc2O1`: 51%.

In another data set the test system is Leishmania donovani. The data set can be described thus: Antileishmanial activity against Leishmania donovani MHOM/ET/67/HU3 amastigotes infected in BALB/c mouse model of visceral leishmaniasis assessed as reduction in parasite burden in liver at 50 mg/kg, po administered once daily for 5 consecutive days starting after 7 days post-infection by microscopic analysis relative to control. Type of data set: functional. On the set-up: scale not given: the % may be the effect or the level left. As to conditions: time 5 day.
With `CC1(CNC(=O)Nc2ccc(OC(F)(F)F)cc2)CCn2cc([N+](=O)[O-])nc2O1` (stereo unspecified), the Activity came out at 36%.

System in a further data set: not listed separately
The experiment in a line: Microsomal stability in mouse liver microsomes assessed as parent compound remaining at 1 uM measured up to 60 mins in presence of NADPH by LC-MS/MS analysis.
Details: not given
For orientation: Liver microsomes are a subcellular fraction often used to study metabolism.
Consider `CC1(CNC(=O)c2cccc(OC(F)(F)F)c2)CCn2cc([N+](=O)[O-])nc2O1` (stereo unspecified), for which the share remaining at 1 h, 1 µM turned out to be 36%.
Regarding `CC1(CNC(=O)Nc2ccc(OC(F)(F)F)cc2)CCn2cc([N+](=O)[O-])nc2O1` (stereo unspecified), the fraction remaining at 1 h, 1 µM amounted to 39%.

System in a further data set: not listed separately
The experiment in a line: Microsomal stability in human liver microsomes assessed as parent compound remaining at 1 uM measured up to 60 mins in presence of NADPH by LC-MS/MS analysis.
Details: not given
Take `CC1(CNC(=O)c2cccc(OC(F)(F)F)c2)CCn2cc([N+](=O)[O-])nc2O1` (stereo unspecified): the amount remaining at 1 h, 1 µM turned out to be 58%.
With `CC1(CNC(=O)Nc2ccc(OC(F)(F)F)cc2)CCn2cc([N+](=O)[O-])nc2O1` (stereo unspecified), the share remaining at 1 h, 1 µM turned out to be 54%.

System in another data set: not listed separately
The experiment in a line: Aqueous solubility of the compound at pH 7 sonicated for 15 mins by HPLC analysis. The note with it: aqueous medium.
The molecule `C[C@@]1(COC(=O)Nc2ccc(OC(F)(F)F)cc2)CCn2cc([N+](=O)[O-])nc2O1` yielded a solubility at 0.25 h of 7.9 µg/mL (≈ 19 µM).
`CC1(CNCc2ccc(OC(F)(F)F)cc2)CCn2cc([N+](=O)[O-])nc2O1` (stereo unspecified) registered a solubility at 0.25 h of 124 µg/mL (≈ 321 µM).
For the molecule `CC1(CNC(=O)c2cccc(OC(F)(F)F)c2)CCn2cc([N+](=O)[O-])nc2O1` (stereo unspecified), the concentration in solution (solubility at 0.25 h) was 14 µg/mL (≈ 35 µM).
The molecule `CC1(CNC(=O)Nc2ccc(OC(F)(F)F)cc2)CCn2cc([N+](=O)[O-])nc2O1` (stereo unspecified) gave a solubility at 0.25 h of 121 µg/mL (≈ 291 µM).

System in a further data set: not listed separately
The experiment in a line: Solubility of the compound in 0.1 M HCl at pH 1 sonicated for 15 mins by HPLC analysis. Type of data set: physicochemical.
Details: not given
In turn, `CC1(CNCc2ccc(OC(F)(F)F)cc2)CCn2cc([N+](=O)[O-])nc2O1` (stereo unspecified) returned a solubility at 0.25 h of 33000 µg/mL (≈ 85400 µM).

Another data set relates to Leishmania infantum. The data set can be described thus: Antileishmanial activity against Leishmania infantum MHOM/MA(BE)/67 amastigotes infected in mouse peritoneal macrophages incubated for 5 days by Giemsa staining based assay. It counts as functional, organism-based. As to conditions: MHOM/MA(BE)/67, Peritoneal macrophage, 120 h.
Molecule `CC1(COc2ccc(F)cc2)CCn2cc([N+](=O)[O-])nc2O1` (stereo unspecified) yielded an IC50 of 0.45 µM.
On the same count and under the same terms, as for `C[C@@]1(COC(=O)Nc2ccc(OC(F)(F)F)cc2)CCn2cc([N+](=O)[O-])nc2O1`, the figure is 0.2 µM; as for `CN(CC1(C)CCn2cc([N+](=O)[O-])nc2O1)c1ccc(Cl)cc1` (stereo unspecified), 0.31 µM.
Still for that read-out and setting: the same measure for `CC1(CNCc2ccc(OC(F)(F)F)cc2)CCn2cc([N+](=O)[O-])nc2O1` (stereo unspecified): 0.13 µM; for `CN(CC1(C)CCn2cc([N+](=O)[O-])nc2O1)c1ccc(F)cc1` (stereo unspecified): 0.48 µM; for `CC1(CNC(=O)c2cccc(OC(F)(F)F)c2)CCn2cc([N+](=O)[O-])nc2O1` (stereo unspecified): 1.3 µM.
Still for that read-out and setting: as for `CC1(CNC(=O)Nc2ccc(OC(F)(F)F)cc2)CCn2cc([N+](=O)[O-])nc2O1` (stereo unspecified), the figure is 1.4 µM.
Molecule `CC1(CNC(=O)NCc2ccc(OC(F)(F)F)cc2)CCn2cc([N+](=O)[O-])nc2O1` (stereo unspecified) gave an IC50 of 1.8 µM.
Same read-out and setting: as for `CN(CC1CCn2cc([N+](=O)[O-])nc2O1)c1ccc(OC(F)(F)F)cc1` (stereo unspecified), the figure is 0.22 µM.
Same read-out and setting: the same measure for `CC1(COC(=O)N(Cc2ccc(OC(F)(F)F)cc2)C(=O)NCc2ccc(OC(F)(F)F)cc2)CCn2cc([N+](=O)[O-])nc2O1` (stereo unspecified): 1.3 µM; for `O=C(NCC1CCn2cc([N+](=O)[O-])nc2O1)Nc1ccc(OC(F)(F)F)cc1` (stereo unspecified): 3.3 µM.
Same read-out and setting: as for `CC1(CNc2ccc(F)cc2)CCn2cc([N+](=O)[O-])nc2O1` (stereo unspecified), the figure is 0.93 µM; as for `O=C(NCC1CCn2cc([N+](=O)[O-])nc2O1)c1ccc(OC(F)(F)F)cc1` (stereo unspecified), 1.5 µM.
With `O=C(NCc1ccc(OC(F)(F)F)cc1)N(Cc1ccc(OC(F)(F)F)cc1)C(=O)OCC1CCn2cc([N+](=O)[O-])nc2O1` (stereo unspecified), 0.79 µM corresponded to half-maximal inhibition (IC50).
`CC1(CNC(=O)c2ccccc2OC(F)(F)F)CCn2cc([N+](=O)[O-])nc2O1` (stereo unspecified) came in with an IC50 of 9.9 µM.
On the same count and under the same terms, the same measure for `CN(CC1(C)CCn2cc([N+](=O)[O-])nc2O1)c1ccc(C(F)(F)F)nc1` (stereo unspecified): 2.2 µM.
